Results published in ChEMBL document CHEMBL4840344, “Discovery of 1,8-naphthalidine derivatives as potent anti-hepatic fibrosis agents via repressing PI3K/AKT/Smad and JAK2/STAT3 pathways” (Bioorg Med Chem, 2021).
Active and inactive are the calls of the source. The rule behind the calls is not given here.

Legend:
LX-2 [1] = assay: Anti-fibrogenic activity in human LX2 cells assessed as inhibition of TGFbeta1-induced COL1A1 protein level at 3 to 10 uM incubated for 24 hrs by Western blot analysis; format: functional, cell-based; conditions: dose 3-10 µM
[2] = Anti-fibrogenic activity in human LX2 cells assessed as inhibition of TGFbeta1-induced TGFbeta1 mRNA expression at 10 uM incubated for 24 hrs by RT-PCR analysis; format: functional; conditions: LX-2
[3] = Anti-fibrogenic activity in human LX2 cells assessed as inhibition of TGFbeta1-induced CTGF mRNA expression at 10 uM incubated for 24 hrs by RT-PCR analysis; format: functional; conditions: LX-2
[4] = Anti-fibrogenic activity in human LX2 cells assessed as inhibition of TGFbeta1-induced CTGF mRNA expression at 3 uM incubated for 24 hrs by RT-PCR analysis; format: functional; conditions: LX-2
[5] = Anti-fibrogenic activity in human LX2 cells assessed as inhibition of TGFbeta1-induced ACTA2 mRNA expression at 10 uM incubated for 24 hrs by RT-PCR analysis; format: functional; conditions: LX-2
LX-2 [6] = assay: Down regulation of JAK3 expression in TGF-beta1 induced human LX2 cells at 3 to 10 uM after 24 hrs by Western blot analysis; format: functional, cell-based; conditions: dose 3-10 µM
Rattus norvegicus [7] = assay: Antifibrotic activity in Sprague-Dawley rat liver assessed as reduction in TGF-beta1-induced COL1A1 protein expression at 200 mg/kg oral gavage for 14 days by Western blot analysis; format: functional, organism-based; conditions: time 14.0 day
[8] = biological target: Mothers against decapentaplegic homolog 3 (Homo sapiens) (UniProt P84022); assay: Inhibition of TGF-beta1 induced SMAD3 phosphorylation in human LX2 cells by Western blot analysis; format: cell-based
Mothers against decapentaplegic homolog 3 (Homo sapiens), sequence (P84022 2-425 limits assumed): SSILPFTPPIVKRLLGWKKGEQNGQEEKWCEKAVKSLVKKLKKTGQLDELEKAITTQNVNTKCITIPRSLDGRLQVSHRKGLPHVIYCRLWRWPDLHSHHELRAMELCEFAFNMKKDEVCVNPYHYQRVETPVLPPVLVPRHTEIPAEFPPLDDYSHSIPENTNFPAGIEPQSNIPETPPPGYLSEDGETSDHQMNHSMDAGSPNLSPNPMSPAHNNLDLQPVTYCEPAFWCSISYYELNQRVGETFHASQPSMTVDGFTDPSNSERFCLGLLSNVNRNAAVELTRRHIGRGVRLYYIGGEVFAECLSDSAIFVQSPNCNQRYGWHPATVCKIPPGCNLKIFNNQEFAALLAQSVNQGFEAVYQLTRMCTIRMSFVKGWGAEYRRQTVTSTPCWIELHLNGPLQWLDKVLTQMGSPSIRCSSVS

[9] = Anti-fibrogenic activity in human LX2 cells assessed as inhibition of TGFbeta1-induced TGFbeta1 mRNA expression at 3 uM incubated for 24 hrs by RT-PCR analysis; format: functional; conditions: LX-2
Rattus norvegicus [10] = assay: Antifibrotic activity in Sprague-Dawley rat liver assessed as reduction in TGF-beta1-induced alpha-SMA protein expression at 200 mg/kg oral gavage for 14 days by Western blot analysis; format: functional, organism-based; conditions: time 14.0 day
LX-2 [11] = assay: Down regulation of PI3K expression in TGF-beta1 induced human LX2 cells after 24 hrs by Western blot analysis; format: functional, cell-based
[12] = Anti-fibrogenic activity in human LX2 cells assessed as inhibition of TGFbeta1-induced COL1A1 mRNA expression at 10 uM incubated for 24 hrs by RT-PCR analysis; format: functional; conditions: LX-2
[13] = biological target: Mothers against decapentaplegic homolog 2/homolog 3 (Homo sapiens) (UniProt P84022+Q15796); assay: Inhibition of TGF-beta1 induced SMAD2/3 phosphorylation in human LX2 cells at 3 to 10 uM incubated for 24 hrs by Western blot analysis; format: cell-based; conditions: dose 3-10 µM
Mothers against decapentaplegic homolog 2/homolog 3 (Homo sapiens), sequence (P84022 whole entry, looked up): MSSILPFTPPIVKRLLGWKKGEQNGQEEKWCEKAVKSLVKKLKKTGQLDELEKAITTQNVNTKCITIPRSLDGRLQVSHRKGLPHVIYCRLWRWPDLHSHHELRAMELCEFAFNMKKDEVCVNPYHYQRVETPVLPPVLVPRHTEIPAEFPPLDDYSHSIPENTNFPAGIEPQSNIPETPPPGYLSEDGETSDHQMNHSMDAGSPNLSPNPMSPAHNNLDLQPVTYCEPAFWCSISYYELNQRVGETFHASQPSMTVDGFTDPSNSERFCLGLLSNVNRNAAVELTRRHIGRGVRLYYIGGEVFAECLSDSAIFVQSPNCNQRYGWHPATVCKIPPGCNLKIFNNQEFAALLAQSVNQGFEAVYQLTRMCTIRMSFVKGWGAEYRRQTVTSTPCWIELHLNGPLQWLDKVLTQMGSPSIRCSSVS
Mothers against decapentaplegic homolog 2/homolog 3 (Homo sapiens), sequence (Q15796 whole entry, looked up): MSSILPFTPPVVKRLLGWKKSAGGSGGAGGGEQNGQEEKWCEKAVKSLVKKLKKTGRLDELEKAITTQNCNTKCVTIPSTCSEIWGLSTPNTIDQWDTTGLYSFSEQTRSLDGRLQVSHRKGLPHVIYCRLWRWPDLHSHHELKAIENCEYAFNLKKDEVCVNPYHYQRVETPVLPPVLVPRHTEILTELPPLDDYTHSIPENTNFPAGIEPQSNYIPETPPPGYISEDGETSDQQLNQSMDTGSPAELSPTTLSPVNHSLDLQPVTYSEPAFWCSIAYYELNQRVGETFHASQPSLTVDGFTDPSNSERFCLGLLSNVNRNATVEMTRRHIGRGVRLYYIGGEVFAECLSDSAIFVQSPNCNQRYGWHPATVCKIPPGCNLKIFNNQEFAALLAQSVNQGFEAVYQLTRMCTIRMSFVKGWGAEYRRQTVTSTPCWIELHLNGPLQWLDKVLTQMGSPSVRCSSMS

LX2 = assay: Inhibition of PI3K/Akt pathway in human LX2 cells assessed as inhibition of TGF-beta1 induced AKT phosphorylation at 3 to 10 uM incubated for 24 hrs by Western blot analysis; format: cell-based; conditions: dose 3-10 µM
LX-2 [14] = assay: Anti-fibrogenic activity in human LX2 cells assessed as inhibition of TGFbeta1-induced CTGF protein level at 3 to 10 uM incubated for 24 hrs by Western blot analysis; format: functional, cell-based; conditions: dose 3-10 µM
COL1A1 promoter [15] = assay: Inhibition of COL1A1 promotor activity in human LX2 cells at 50 uM incubated for 24 hrs by luciferase reporter gene assay; format: cell-based
Rattus norvegicus [16] = assay: Antifibrotic activity in Sprague-Dawley rat liver assessed as reduction in TGF-beta1-induced TGF-beta1 protein expression at 200 mg/kg oral gavage for 14 days by Western blot analysis; format: functional, organism-based; conditions: time 14.0 day
LX-2 [17] = assay: Anti-fibrogenic activity in human LX2 cells assessed as inhibition of TGFbeta1-induced MMP2 protein level at 3 to 10 uM incubated for 24 hrs by Western blot analysis; format: functional, cell-based; conditions: dose 3-10 µM
Rattus norvegicus [18] = assay: Anti-fibrotic activity in Sprague-Dawley rat model of BDL-induced […] fibrosis assessed as reduction in hepatic collagen accumulation in hepatic parenchyma at 200 mg/kg oral gavage for 14 days by Sirius red staining-based analysis; format: functional, organism-based; conditions: time 14.0 day
LX-2 [19] = assay: Down regulation of STAT3 expression in TGF-beta1 induced human LX2 cells at 3 to 10 uM after 24 hrs by Western blot analysis; format: functional, cell-based; conditions: dose 3-10 µM
[20] = Anti-fibrogenic activity in human LX2 cells assessed as inhibition of TGFbeta1-induced MMP2 mRNA expression at 3 uM incubated for 24 hrs by RT-PCR analysis; format: functional; conditions: LX-2
COL1A1 promoter [21] = assay: Inhibition of COL1A1 promotor activity in human LX2 cells at 20 uM incubated for 24 hrs by luciferase reporter gene assay; format: cell-based
Rattus norvegicus [22] = assay: Anti-fibrotic activity in Sprague-Dawley rat model of BDL-induced […] fibrosis assessed as reduction in hepatic collagen accumulation in portal areas at 200 mg/kg oral gavage for 14 days by Sirius red staining-based analysis; format: functional, organism-based; conditions: time 14.0 day
Rattus norvegicus [23] = assay: Antifibrotic activity in Sprague-Dawley rat liver assessed as reduction in TGF-beta1-induced MMP2 protein expression at 200 mg/kg oral gavage for 14 days by Western blot analysis; format: functional, organism-based; conditions: time 14.0 day
LX-2 [24] = assay: Anti-fibrogenic activity in human LX2 cells assessed as inhibition of TGFbeta1-induced TGFbeta1 protein level at 3 to 10 uM incubated for 24 hrs by Western blot analysis; format: functional, cell-based; conditions: dose 3-10 µM
[25] = Anti-fibrogenic activity in human LX2 cells assessed as inhibition of TGFbeta1-induced ACTA2 mRNA expression at 3 uM incubated for 24 hrs by RT-PCR analysis; format: functional; conditions: LX-2
Rattus norvegicus [26] = species on record: Rattus norvegicus; assay: Anti-fibrotic activity in Sprague-Dawley rat model of BDL-induced […] fibrosis assessed as reduction in hepatic injury by hematoxylin and eosin staining based microscopic analysis; format: functional, organism-based
[27] = biological target: Tyrosine-protein kinase JAK2 (Homo sapiens) (UniProt O60674); assay: Inhibition of JAK2 phosphorylation in TGF-beta1 induced human LX2 cells at 3 to 10 uM incubated for 24 hrs by Western blot analysis; format: cell-based; conditions: dose 3-10 µM
Tyrosine-protein kinase JAK2 (Homo sapiens), sequence (O60674 whole entry): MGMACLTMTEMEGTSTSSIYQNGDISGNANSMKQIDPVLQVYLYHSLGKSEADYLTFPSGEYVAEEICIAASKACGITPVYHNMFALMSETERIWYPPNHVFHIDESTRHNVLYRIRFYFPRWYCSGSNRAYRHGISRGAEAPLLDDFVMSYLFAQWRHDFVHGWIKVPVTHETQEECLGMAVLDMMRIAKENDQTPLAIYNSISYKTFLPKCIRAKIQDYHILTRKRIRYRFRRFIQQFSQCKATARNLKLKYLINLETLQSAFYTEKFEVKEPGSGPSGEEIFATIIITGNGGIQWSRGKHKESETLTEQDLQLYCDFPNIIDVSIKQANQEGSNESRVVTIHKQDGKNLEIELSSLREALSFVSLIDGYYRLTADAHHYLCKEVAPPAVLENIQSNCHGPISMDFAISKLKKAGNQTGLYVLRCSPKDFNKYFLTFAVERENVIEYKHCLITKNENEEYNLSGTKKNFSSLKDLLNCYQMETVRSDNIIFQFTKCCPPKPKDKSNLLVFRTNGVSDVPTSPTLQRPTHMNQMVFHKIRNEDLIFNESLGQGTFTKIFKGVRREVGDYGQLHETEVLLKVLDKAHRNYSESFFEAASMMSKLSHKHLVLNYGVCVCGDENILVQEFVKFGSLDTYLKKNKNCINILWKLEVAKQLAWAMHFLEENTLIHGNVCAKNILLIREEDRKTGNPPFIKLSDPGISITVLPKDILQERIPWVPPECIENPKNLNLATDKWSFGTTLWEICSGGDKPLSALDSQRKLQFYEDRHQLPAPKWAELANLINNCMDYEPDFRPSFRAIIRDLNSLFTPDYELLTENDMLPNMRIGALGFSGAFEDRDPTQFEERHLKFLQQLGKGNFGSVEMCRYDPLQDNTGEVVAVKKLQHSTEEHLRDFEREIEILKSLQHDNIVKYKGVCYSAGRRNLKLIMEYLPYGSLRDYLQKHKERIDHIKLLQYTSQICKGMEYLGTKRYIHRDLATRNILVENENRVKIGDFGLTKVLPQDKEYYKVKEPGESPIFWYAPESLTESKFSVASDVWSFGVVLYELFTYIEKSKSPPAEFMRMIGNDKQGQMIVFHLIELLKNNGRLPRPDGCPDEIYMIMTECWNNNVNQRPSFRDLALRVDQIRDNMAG

[28] = Cytotoxicity against human LX2 cells assessed as cell death incubated for 24 hrs by MTT assay; format: cell-based, LX-2
[29] = Anti-fibrogenic activity in human LX2 cells assessed as inhibition of TGFbeta1-induced MMP2 mRNA expression at 10 uM incubated for 24 hrs by RT-PCR analysis; format: functional; conditions: LX-2

SMILES: CC[N+]1(CCCCCCCOc2cc(-n3cc(C(=O)Nc4cc(F)cc(F)c4)c(=O)c4ccc(N(C)C)nc43)ccc2C)CCCC1
- inhibition (LX-2 [1]): Active
- inhibition at 10 µM [2]: 47%
- inhibition at 10 µM [3]: 67.1%
- inhibition at 3 µM [4]: 32%
- inhibition at 10 µM [5]: 83.6%
- Activity (LX-2 [6]): Dose-Dependent Effect
- Activity (Rattus norvegicus [7]): Active
- inhibition [8]: Dose-Dependent Effect
- inhibition at 3 µM [9]: 28.9%
- Activity (Rattus norvegicus [10]): Active
- Activity (LX-2 [11]): Dose-Dependent Effect
- inhibition at 10 µM [12]: 79.7%
- inhibition [13]: Dose-Dependent Effect
- inhibition (LX2): Dose-Dependent Effect
- inhibition (LX-2 [14]): Active
- inhibition (COL1A1 promoter [15]): 81.3%
- Activity (Rattus norvegicus [16]): Active
- inhibition (LX-2 [17]): Active
- Activity (Rattus norvegicus [18]): Active
- Activity (LX-2 [19]): Dose-Dependent Effect
- inhibition at 3 µM [20]: 36.8%
- inhibition (COL1A1 promoter [21]): 57%
- Activity (Rattus norvegicus [22]): Active
- Activity (Rattus norvegicus [23]): Active
- inhibition (LX-2 [24]): Active
- inhibition at 3 µM [25]: 76.3%
- Activity (Rattus norvegicus [26]): Active
- inhibition [27]: Active
- CC50 at 24 h [28]: 95 µM
- inhibition at 10 µM [29]: 52.4%

SMILES: Cc1cc(OCCCCCCC[N+]2(C)CCCCC2)cc(-n2cc(C(=O)Nc3cc(F)cc(F)c3)c(=O)c3ccc(N(C)C)nc32)c1
- inhibition at 10 µM [12]: 23.1%
- inhibition (COL1A1 promoter [15]): 79.7%
- inhibition (COL1A1 promoter [21]): 46.8%
- CC50 at 24 h [28]: 99.4 µM

SMILES: CN(C)c1ccc2c(=O)c(C(=O)Nc3cc(F)cc(F)c3)cn(-c3ccc(OCCCCCCC[N+](C)(C)C4CCCCC4)c(Cl)c3)c2n1
- inhibition at 10 µM [12]: 30.2%
- inhibition (COL1A1 promoter [15]): 86.2%
- inhibition (COL1A1 promoter [21]): 34.8%
- CC50 at 24 h [28]: > 100 µM

SMILES: CC[N+]1(CCCCCCCOc2ccc(-n3cc(C(=O)Nc4cc(F)cc(F)c4)c(=O)c4ccc(N(C)C)nc43)cc2C)CCCC1
- inhibition at 10 µM [12]: 48.5%
- inhibition (COL1A1 promoter [15]): 82.5%
- inhibition (COL1A1 promoter [21]): 44.6%
- CC50 at 24 h [28]: > 100 µM

SMILES: CC[N+]1(CCCCCCCOc2ccc(-n3cc(C(=O)Nc4cc(F)cc(F)c4)c(=O)c4ccc(N(C)C)nc43)c(F)c2)CCCCC1
- inhibition (COL1A1 promoter [15]): inactive
- inhibition (COL1A1 promoter [21]): inactive
- CC50 at 24 h [28]: < 20 µM

SMILES: CC[N+]1(CCCCCCCOc2ccc(-n3cc(C(=O)Nc4cc(F)cc(F)c4)c(=O)c4ccc(N(C)C)nc43)c(Cl)c2)CCCC1
- inhibition (COL1A1 promoter [15]): inactive
- inhibition (COL1A1 promoter [21]): inactive
- CC50 at 24 h [28]: < 20 µM

SMILES: CN(C)c1ccc2c(=O)c(C(=O)Nc3cc(F)cc(F)c3)cn(-c3ccc(Cl)c(OCCCCCCC[N+]4(C)CCCCC4)c3)c2n1
- inhibition (COL1A1 promoter [15]): 90.5%
- inhibition (COL1A1 promoter [21]): 57.3%
- CC50 at 24 h [28]: 72.6 µM

SMILES: CN(C)c1ccc2c(=O)c(C(=O)Nc3cc(F)cc(F)c3)cn(-c3ccc(Cl)c(OCCCCCCC[n+]4ccccc4)c3)c2n1
- inhibition at 10 µM [12]: 53.6%
- inhibition (COL1A1 promoter [15]): 77.8%
- inhibition (COL1A1 promoter [21]): inactive
- CC50 at 24 h [28]: 105 µM

SMILES: CN(C)c1ccc2c(=O)c(C(=O)Nc3cc(F)cc(F)c3)cn(-c3ccc(Cl)c(OCCCCCCC[N+]4(C)CCCC4)c3)c2n1
- inhibition (COL1A1 promoter [15]): 76.1%
- inhibition (COL1A1 promoter [21]): 51%
- CC50 at 24 h [28]: 54.5 µM

SMILES: CN(C)c1ccc2c(=O)c(C(=O)Nc3cc(F)cc(F)c3)cn(-c3ccc(OCCCCCCC[N+]4(C)CCCC4)cc3F)c2n1
- inhibition (COL1A1 promoter [15]): inactive
- inhibition (COL1A1 promoter [21]): inactive
- CC50 at 24 h [28]: < 20 µM

SMILES: CC[N+]1(CCCCCCCOc2ccc(-n3cc(C(=O)Nc4cc(F)cc(F)c4)c(=O)c4ccc(N(C)C)nc43)c(C)c2)CCCCC1
- inhibition (COL1A1 promoter [15]): inactive
- inhibition (COL1A1 promoter [21]): inactive
- CC50 at 24 h [28]: < 20 µM

SMILES: CN(C)c1ccc2c(=O)c(C(=O)Nc3cc(F)cc(F)c3)cn(-c3ccc(OCCCCCCC[N+]45CCN(CC4)CC5)cc3Cl)c2n1
- inhibition (COL1A1 promoter [15]): 80%
- inhibition (COL1A1 promoter [21]): 40.1%
- CC50 at 24 h [28]: 76.9 µM

SMILES: CN(C)c1ccc2c(=O)c(C(=O)Nc3cc(F)cc(F)c3)cn(-c3ccc(Cl)c(OCCCCCCC[N+](C)(C)C4CCCCC4)c3)c2n1
- inhibition at 10 µM [12]: 40.2%
- inhibition (COL1A1 promoter [15]): 81.4%
- inhibition (COL1A1 promoter [21]): 37.6%
- CC50 at 24 h [28]: > 100 µM

SMILES: CC[N+]1(CCCCCCCOc2cc(C)cc(-n3cc(C(=O)Nc4cc(F)cc(F)c4)c(=O)c4ccc(N(C)C)nc43)c2)CCCCC1
- inhibition (LX-2 [1]): Active
- inhibition at 10 µM [2]: 66%
- inhibition at 10 µM [3]: 68.1%
- inhibition at 3 µM [4]: 30.8%
- inhibition at 10 µM [5]: 80.8%
- Activity (LX-2 [6]): Dose-Dependent Effect
- inhibition [8]: Dose-Dependent Effect
- inhibition at 3 µM [9]: 18.9%
- Activity (LX-2 [11]): Dose-Dependent Effect
- inhibition at 10 µM [12]: 70.8%
- inhibition [13]: Dose-Dependent Effect
- inhibition (LX2): Dose-Dependent Effect
- inhibition (LX-2 [14]): Active
- inhibition (COL1A1 promoter [15]): 86.6%
- inhibition (LX-2 [17]): Active
- Activity (LX-2 [19]): Dose-Dependent Effect
- inhibition at 3 µM [20]: 40.8%
- inhibition (COL1A1 promoter [21]): 67.2%
- inhibition (LX-2 [24]): Active
- inhibition at 3 µM [25]: 74.9%
- inhibition [27]: Active
- CC50 at 24 h [28]: 97.6 µM
- inhibition at 10 µM [29]: 63.7%

SMILES: CN(C)c1ccc2c(=O)c(C(=O)Nc3cc(F)cc(F)c3)cn(-c3ccc(OCCCCCCC[N+]4(C)CCCC4)cc3Cl)c2n1
- inhibition (COL1A1 promoter [15]): inactive
- inhibition (COL1A1 promoter [21]): inactive
- CC50 at 24 h [28]: < 20 µM
